The record followed here is PubChem BioAssay (NCI).

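How tested: cells in 96-well plates exposed to compound for 48 hours at five concentrations. At the TGI there is no net growth.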 Where a SMILES comes first, the peptide text is derived from it. [ ]: non-standard residue; d: D form. Ava = NCCCCC(=O)O; Mpa = O=C(O)CCS

Among the test systems are SN12C renal; HS 578T breast; HOP-62 NSCLC; MOLT-4 leukemia; NCI-H460 lung; CAKI-1 renal; TK-10 renal; M14 melanoma; MCF7 breast; SK-MEL-2 melanoma.
What all share (experiment): NCI anticancer screen, dose series, 48 h

`CC(NC(=O)CCS)C(=O)NC(C)C(=O)NC(Cc1c[nH]c2ccccc12)C(=O)NC(Cc1c[nH]cn1)C(=O)NC(CO)C(=O)NC(Cc1c[nH]c2ccccc12)C(=O)NCCCCC(=O)NC(C)C(=O)NC(CCC(N)=O)C(=O)NC(CCCCN)C(=O)NC(C)C(=O)NC(CCCNC(=N)N)C(=O)NC(CCCCN)C(N)=O` (stereo not given) ([Mpa]AAWHSW[Ava]AQKARK-NH2; configuration not given here): the TGI in the experiment on SN12C renal, with HS 578T breast, in the experiment with HOP-62 NSCLC, in the experiment on MOLT-4 leukemia, in the experiment with NCI-H460 lung and in the experiment with CAKI-1 renal was above 100 µM each time. The TGI in the experiment on TK-10 renal, in the experiment on M14 melanoma, with MCF7 breast and in the experiment on SK-MEL-2 melanoma was above 100 µM in each case.

As for `CCOC(=O)NC(Nc1ccc(F)cc1F)(C(F)(F)F)C(F)(F)F`, the TGI in the experiment on SN12C renal, in the experiment with HS 578T breast, with HOP-62 NSCLC, in the experiment on MOLT-4 leukemia, in the experiment on NCI-H460 lung and with CAKI-1 renal was above 100 µM in each case. The TGI with TK-10 renal, in the experiment on M14 melanoma, in the experiment on MCF7 breast and with SK-MEL-2 melanoma was above 100 µM in each case.

Consider `CCOC(CBr)OC1C(=O)OCC1(C)C` (stereo not given), for which the TGI with SN12C renal, in the experiment with HS 578T breast, in the experiment with HOP-62 NSCLC, in the experiment with MOLT-4 leukemia, in the experiment with NCI-H460 lung and with CAKI-1 renal was above 100 µM each time. Further, the TGI in the experiment with TK-10 renal, in the experiment with M14 melanoma, with MCF7 breast and with SK-MEL-2 melanoma was above 100 µM each time.

For `Nc1cc(CO)cc(Nc2c3ccccc3nc3ccccc23)c1`, the TGI is 35.9 µM in the experiment with SN12C renal; 67.8 µM in the experiment on HS 578T breast; 28.8 µM with HOP-62 NSCLC; above 100 µM in the experiment with MOLT-4 leukemia; above 100 µM in the experiment with NCI-H460 lung; 31.7 µM in the experiment on CAKI-1 renal. For the same compound, the TGI with TK-10 renal was 30.1 µM; in the experiment on M14 melanoma it was 31.3 µM; with MCF7 breast, 29.5 µM; with SK-MEL-2 melanoma it was 30.5 µM.

For the compound `O=C(Nc1ccccc1C(=O)NCc1ccccc1)/C(=C/c1ccccc1O)NC(=O)c1ccccc1`, the TGI in the experiment on SN12C renal, in the experiment on HS 578T breast, in the experiment with HOP-62 NSCLC, in the experiment with MOLT-4 leukemia, in the experiment with NCI-H460 lung and in the experiment on CAKI-1 renal was above 100 µM in each case. The TGI in the experiment with TK-10 renal, in the experiment with M14 melanoma, in the experiment with MCF7 breast and with SK-MEL-2 melanoma was above 100 µM each time.

Turning to `CC1=C[P+](c2ccccc2)(c2ccccc2)c2ccccc2O1`, the TGI in the experiment with SN12C renal is 5.29 µM; in the experiment with HS 578T breast, 11.6 µM; in the experiment on HOP-62 NSCLC, 59 µM; in the experiment with MOLT-4 leukemia, 21 µM; in the experiment with NCI-H460 lung it was above 100 µM; in the experiment on CAKI-1 renal it was above 100 µM. Also, the TGI in the experiment with TK-10 renal is 94.4 µM; in the experiment on M14 melanoma it was above 100 µM; in the experiment on MCF7 breast, above 100 µM; in the experiment on SK-MEL-2 melanoma, 94.6 µM.

On to `Nc1cc(C2CCCc3c2[nH]c2ccccc32)ccc1O` (stereo not given), for which the TGI in the experiment with SN12C renal is above 100 µM; in the experiment with HS 578T breast, above 100 µM; with HOP-62 NSCLC, above 100 µM; in the experiment on MOLT-4 leukemia, 91.2 µM; with NCI-H460 lung it was above 100 µM; with CAKI-1 renal, 84.5 µM. Moreover, the TGI with TK-10 renal, with M14 melanoma, in the experiment on MCF7 breast and in the experiment with SK-MEL-2 melanoma was above 100 µM in each case.

As to `CS(=O)(=O)OCCN(CCOS(C)(=O)=O)c1ccc(C=Nc2ccc(-c3csc(Cc4ccccc4)n3)cc2)c(Cl)c1`, the TGI is above 100 µM in the experiment on SN12C renal; 76.7 µM in the experiment on HS 578T breast; above 55.5 µM with HOP-62 NSCLC; above 87.9 µM in the experiment with MOLT-4 leukemia; 43.4 µM with NCI-H460 lung; 13.5 µM with CAKI-1 renal. In addition, the TGI with TK-10 renal is above 100 µM; with M14 melanoma it was above 62.7 µM; in the experiment on MCF7 breast, 50.1 µM; in the experiment with SK-MEL-2 melanoma it was above 67.9 µM.

With `COc1cc(C[C@@]2(C)[C@@H]3CCC[C@H](CO)[C@@]3(C)CC[C@@H]2C)c(Cl)c(OC)c1`, the TGI in the experiment on SN12C renal turned out to be 30 µM; in the experiment on HS 578T breast it was 47.5 µM; in the experiment with HOP-62 NSCLC it was 31.6 µM; in the experiment with MOLT-4 leukemia, 44.6 µM; in the experiment with NCI-H460 lung, 36.3 µM; with CAKI-1 renal, 31.1 µM. In addition, the TGI in the experiment on TK-10 renal is 35.1 µM; in the experiment with M14 melanoma, 36.8 µM; in the experiment on MCF7 breast it was 29.8 µM; with SK-MEL-2 melanoma, 33.5 µM.

As for `CCCC(=O)OCC1OC(n2cc(F)c(=O)[nH]c2=O)CC1OC(=O)CCC` (stereo not given), the TGI with SN12C renal was above 10 µM; in the experiment on HS 578T breast it was above 10 µM; in the experiment on HOP-62 NSCLC, above 10 µM; in the experiment with MOLT-4 leukemia, above 10 µM; in the experiment on NCI-H460 lung, above 10 µM; in the experiment on CAKI-1 renal, above 7.85 µM. For the same compound, the TGI in the experiment with TK-10 renal, in the experiment with M14 melanoma, in the experiment with MCF7 breast and in the experiment on SK-MEL-2 melanoma was above 10 µM in each case.

On to `COc1ccc(N2C(=O)C3ON(Cc4ccc(CC(N)=O)cc4)C(c4c5ccccc5c(C)c5ccccc45)C3C2=O)cc1` (stereo not given), for which the TGI was above 100 µM in the experiment with SN12C renal; above 100 µM in the experiment with HS 578T breast; above 100 µM with HOP-62 NSCLC; 6.41 µM in the experiment with MOLT-4 leukemia; 30.8 µM with NCI-H460 lung; above 100 µM in the experiment on CAKI-1 renal. Besides, the TGI was 47.8 µM in the experiment on TK-10 renal, above 100 µM in the experiment on M14 melanoma, 46.6 µM in the experiment with MCF7 breast and 48.7 µM in the experiment on SK-MEL-2 melanoma.

As for `CCOC(=O)/C(C(N)=O)=C(\O)C(=O)/C=C(\O)c1ccc(Cl)cc1`, the TGI in the experiment on SN12C renal was 32.2 µM; in the experiment with HS 578T breast, above 100 µM; in the experiment with HOP-62 NSCLC, 60.7 µM; in the experiment with MOLT-4 leukemia it was 40.6 µM; in the experiment with NCI-H460 lung, 31.5 µM; with CAKI-1 renal it was 64 µM. Also, the TGI was determined as 26 µM with TK-10 renal, 48.3 µM with M14 melanoma, 62.4 µM in the experiment with MCF7 breast and 34.4 µM in the experiment with SK-MEL-2 melanoma.

For the compound `O=c1c(NCc2ccccc2)c(C2(c3ccccc3F)SCCCS2)c1=O`, the TGI in the experiment on SN12C renal, in the experiment with HS 578T breast, with HOP-62 NSCLC, with MOLT-4 leukemia, in the experiment with NCI-H460 lung and in the experiment on CAKI-1 renal was above 100 µM in each case. Further, the TGI with TK-10 renal, in the experiment on M14 melanoma, in the experiment with MCF7 breast and with SK-MEL-2 melanoma was above 100 µM in each case.

As to `COc1c(C(=O)/C(=N/Nc2ccc(C(=O)O)cc2)C(C)=O)c(O)cc2occc12`, the TGI with SN12C renal, with HS 578T breast, in the experiment on HOP-62 NSCLC, in the experiment with MOLT-4 leukemia, in the experiment with NCI-H460 lung and in the experiment on CAKI-1 renal was above 100 µM each time. The TGI in the experiment with TK-10 renal, in the experiment on M14 melanoma, in the experiment on MCF7 breast and in the experiment on SK-MEL-2 melanoma was above 100 µM each time.

As to `CC(=O)C1=C(C)N(c2ccccc2)C2(O)C3=C(C(=O)c4ccccc4C3=O)C(O)=CC12Cl` (stereo not given), the TGI in the experiment on SN12C renal is 24 µM; in the experiment with HS 578T breast, 15.2 µM; with HOP-62 NSCLC, 80.1 µM; in the experiment on MOLT-4 leukemia, above 100 µM; in the experiment with NCI-H460 lung, above 100 µM; in the experiment with CAKI-1 renal, 27.2 µM. Besides, the TGI in the experiment on TK-10 renal is 33.1 µM; with M14 melanoma it was above 100 µM; in the experiment on MCF7 breast, 39.9 µM; in the experiment with SK-MEL-2 melanoma, 22.2 µM.

In the case of `COC(=O)C1(Cc2ccc3c(c2)CCC3)Cc2ccc3c(c2C1=O)CCC3` (stereo not given), the TGI in the experiment on SN12C renal was above 100 µM; in the experiment with HS 578T breast, 16.4 µM; in the experiment on HOP-62 NSCLC, above 100 µM; with MOLT-4 leukemia, 36.5 µM; in the experiment on NCI-H460 lung, above 63.9 µM; in the experiment with CAKI-1 renal it was above 100 µM. For the same compound, the TGI in the experiment on TK-10 renal was above 90.1 µM; in the experiment on M14 melanoma, 33.1 µM; with MCF7 breast it was above 20.4 µM; with SK-MEL-2 melanoma it was 15.4 µM.

With `CCO/N=C\c1ccc2oc(-c3ccccc3)cc(=O)c2c1`, the TGI in the experiment on SN12C renal came out at 11.5 µM; in the experiment with HS 578T breast, 42.8 µM; in the experiment on HOP-62 NSCLC, 28.7 µM; in the experiment with MOLT-4 leukemia, 19.9 µM; in the experiment on NCI-H460 lung, 4.19 µM; in the experiment with CAKI-1 renal it was 41.7 µM. The TGI with TK-10 renal is 34 µM; with M14 melanoma it was above 31.6 µM; with MCF7 breast, 18 µM; in the experiment with SK-MEL-2 melanoma it was 4.54 µM.

Take `COC(=O)[C@@]12CSC[C@]1(C(=O)OC)N[C@@H](c1ccccc1O)C2`: the TGI with SN12C renal, in the experiment with HS 578T breast, with HOP-62 NSCLC, with MOLT-4 leukemia, in the experiment on NCI-H460 lung and in the experiment with CAKI-1 renal was above 100 µM throughout. In addition, the TGI in the experiment on TK-10 renal, with M14 melanoma, with MCF7 breast and with SK-MEL-2 melanoma was above 100 µM each time.

On to `O=C(N/N=C\c1ccc(Cl)cc1)Nc1ccc2ccccc2c1`, for which the TGI was above 100 µM in the experiment with SN12C renal; 76.9 µM in the experiment on HS 578T breast; 51.3 µM with HOP-62 NSCLC; above 100 µM with MOLT-4 leukemia; above 100 µM with NCI-H460 lung; above 100 µM in the experiment on CAKI-1 renal. Moreover, the TGI in the experiment with TK-10 renal, in the experiment with M14 melanoma, in the experiment with MCF7 breast and in the experiment with SK-MEL-2 melanoma was above 100 µM each time.
